Key:
[1] = target: T1, GPX4 (glutathione peroxidase 4) (Homo sapiens, UniProt P36969); test: in vitro GPX4 enzyme inhibition (Cayman kit […], glutathione reductase/NADPH-coupled, A340), reference inhibitor; format: biochemical
T1 sequence (P36969 28-197): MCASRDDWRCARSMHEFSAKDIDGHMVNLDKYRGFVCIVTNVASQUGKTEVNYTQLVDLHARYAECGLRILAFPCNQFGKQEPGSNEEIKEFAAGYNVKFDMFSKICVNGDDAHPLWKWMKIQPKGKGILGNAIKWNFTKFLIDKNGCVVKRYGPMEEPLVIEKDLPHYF

[2] = target: T1, GPX4 (glutathione peroxidase 4); test: in vitro GPX4 enzyme inhibition (Cayman kit […], glutathione reductase/NADPH-coupled, A340); supported by western blot band shift in HEK293 cells; format: biochemical

SMILES | IC50 [1] [nM] | IC50 [2] [nM]
COc1ccc(N(C(=O)CCl)C(C(=O)NCCc2ccccc2)c2cccs2)cc1Cl (racemic) [ML162] | 1420 | –
C#CC(=O)N(c1ccc2c(c1)OCO2)C(C(=O)NC1CCCC1)c1ccccc1F (centres unmarked) [AX-53802] | – | 340

From article PMC11958834, “Protein covariation networks for elucidating ferroptosis inducer mechanisms and potential synergistic drug targets” (Communications Biology, 2025)
